# Earlier results as cited in PMC7306898, “Concentration-Dependent Activity of Hydromethylthionine on Clinical Decline and Brain Atrophy in a Randomized Controlled Trial in Behavioral Variant Frontotemporal Dementia” (Journal of Alzheimer's Disease, 2020).
# Where two headings read alike, the source gives them in different places.
# Experiments:
# [1] = cited from earlier work; for Plasma Half-life, Mean: value in parentheses ref U.S. approved product labeling
# [2] = design: method as in Investigator's Brochure; conditions: coadministration of reduced leuco (LMT) form with food ref Investigator's Brochure; cited from earlier work
# [3] = tested on: serotonin transporter; design: method as in PMID 21542830; conditions: in vitro ref 73; cited from earlier work
# [4] = tested on: mitochondrial activity; design: method as in PMID 22419586, PMID 17928358; conditions: cited from earlier work
# [5] = tested on: TDP-43; design: method as in PMID 19560462; conditions: cell models ref 34; read-out: EC50, inhibition of aggregation of TDP-43; cited from earlier work
# [6] = tested on: subjects with a clinical diagnosis within the FTLD spectrum; design: method as in Investigator's Brochure; conditions: MTC 138 mg/day MT, cited from earlier work
# [7] = tested on: mice; design: method as in U.S. National Toxicology Program; conditions: cited from earlier work
# [8] = tested on: male rats; design: method as in U.S. National Toxicology Program; conditions: pancreatic islet cell adenoma and adenoma or carcinoma ref U.S. National Toxicology Program; cited from earlier work
# [9] = tested on: subjects with AD; design: method as in TRx-014-001; conditions: cited from earlier work
# [10] = tested on: subjects with mild or moderate AD; conditions: cited from earlier work
# [11] = ref U.S. approved product labeling
# [12] = single dose ref U.S. approved product labeling
# [13] = Biphasic ref U.S. approved product labeling
Structure (SMILES),"Plasma Half-life, range or single value [1, 11] [h]",also measured
"N[C@@H]1C[C@H]1c1ccccc1 (racemic) [Tr a n yl c yp r o mi n e, Tranylcypromine]",2.5,
Oc1ccc2c(c1)N=C(N1CCNCC1)c1cc(Cl)ccc1O2 [8-hydroxyamoxapine],30,
CN(C)CCC=C1c2ccccc2CCc2ccccc21 [Amitriptyline],9 to 25,
"Clc1ccc2c(c1)C(N1CCNCC1)=Nc1ccccc1O2 [Amo xapine, Amoxapine]",8,
CC(NC(C)(C)C)C(=O)c1cccc(Cl)c1 (centres unmarked) [Bupropion],12 to 30,"Plasma Half-life, Mean [1]: 21 h"
O=C1CC2(CCCC2)CC(=O)N1CCCCN1CCN(c2ncccn2)CC1 [Buspirone],,"Plasma Half-life [1, 12]: 2 to 3 h"
CN(C)CCCC1(c2ccc(F)cc2)OCc2cc(C#N)ccc21 (centres unmarked) [Citalopram],35,"increase in half-life reported in elderly [1, 11]: 30-50%"
CN(C)[C@@H](CCOc1cccc2ccccc12)c1ccccc1 [Dapoxetene],,"Plasma Half-life, initial [1, 13]: 1.5 h; Plasma Half-life, terminal [1, 13]: 20 h"
"CNCCC=C1c2ccccc2COc2ccccc21 [Des meth yldoxepin, Desmethyldoxepin]",28 to 52,
CNCCCN1c2ccccc2CCc2ccccc21 [Desipramine],12 to 27,
"CNCCCN1c2ccccc2CCc2ccc(Cl)cc21 [Desmeth ylclo mipramine, Desmethylclomipramine]",54 to 77,"Plasma Half-life, Mean [1]: 69 h"
"CN(C)CC(c1ccc(O)cc1)C1(O)CCCCC1 (centres unmarked) [Desven la fa xin e, Desvenlafaxine]",11,
CN(C)CC/C=C1\c2ccccc2CSc2ccccc21 [Dosulepin],19 to 33,"Plasma Half-life for “its metabolites” [1, 11]: 23 to 46 h"
CN(C)CCC=C1c2ccccc2COc2ccccc21 [Doxepin],15.3,
CC(NC(C)(C)C)C(O)c1cccc(Cl)c1 (centres unmarked) [Erythrohydrobupropion],23 to 43,"Plasma Half-life, Mean [1]: 33 h"
CN(C)CCC[C@@]1(c2ccc(F)cc2)OCc2cc(C#N)ccc21 [Escitalopram],27 to 32,"increase in half-life reported in elderly [1, 11]: 50%"
CNCCC(Oc1ccc(C(F)(F)F)cc1)c1ccccc1 (centres unmarked) [Fluoxetine],,Plasma Half-life ([1]; Acute ref U.S. approved product labeling): 24 to 72 h; Plasma Half-life ([1]; Chronic ref U.S. approved product labeling): 96 to 140 h
COCCCC/C(=N\OCCN)c1ccc(C(F)(F)F)cc1 [Fluvoxamine],15.6,
C[C@H]1NC(C)(C)CO[C@]1(O)c1cccc(Cl)c1 [Hydroxybupropion],15 to 25,"Plasma Half-life, Mean [1]: 20 h"
"CN(C)c1ccc2c(c1)Sc1cc(N(C)C)ccc1N2 [LMT, leuco-methylthioninium]",,lowering of peak concentrations with food [2]: 8%
"CN(C)c1ccc2nc3ccc(=[N+](C)C)cc-3sc2c1 [MT, methylthioninium]",,IC50 [3]: 1.2 µM; concentrations at which mitochondrial activity is enhanced [4]: 10 to 100 nM; EC50 [5]: 0.05 µM
"CN(C)c1ccc2nc3ccc(=[N+](C)C)cc-3sc2c1 [MTC, methylthioninium chloride]",,"MMSE scores, mean above Baseline ([6]; 12 months ref Investigator's Brochure): 1.6 units; ACE-R scores improved by a mean (mean ± SEM) ([6]; 12 months, 7 subjects, LOCF ref Investigator's Brochure): 4.5 ± 2.4 units; carcinogenic activity ([7]; female mice, malignant lymphoma ref U.S. National Toxicology Program): equi vocal eviden ce of; carcinogenic activity ([7]; male mice, carcinoma and adenoma or carcinoma in the small intestine ref U.S. National Toxicology Program): some evidenc e of car cinogeni c activit y; carcinogenic activity [8]: som e evi dence of carcino genic; methemoglobin, highest value observed ([9]; Phase 2 study ref TRx-014-001): 8%; Diarrhea and related adverse events ([9]; highest dose, 228 mg MT/day ref TRx-014-001): 48%; discontinuation due to urinary adverse events ([9]; including urinary discoloration and staining ref TRx-014-001): 6%; discontinuation due to diarrhea and related adverse events, overall ([9]; ref TRx-014-001): 16%; mean methemoglobin levels ([9]; ref TRx-014-001): below 3.5%; subjects discontinued due to vomiting ([9]; ref TRx-014-001): 3%; methemoglobin, mean overall ([9]; those treated with MTC ref TRx-014-001): 0.8%; clinically effective dose available ([10]; 100 mg MTC capsules twice or three times daily, nominal doses 152-228 mg/day ref Baddeley et al., 2015, Wischik et al.): 72 to 109 mg/day; minimum effective dose in AD ([10]; placebo-controlled dose-finding Phase II trial ref 47): 138 mg/day"
CNCCCC12CCC(c3ccccc31)c1ccccc12 [Maprotiline],51,

Structure (SMILES),"Plasma Half-life, range or single value [1, 11] [h]",also measured
CCN(CC)C(=O)C1(c2ccccc2)CC1CN (centres unmarked) [Milnacipran],6 to 8,
O=C(NCCN1CCOCC1)c1ccc(Cl)cc1 [Moclobemide],1 to 2,
"N[C@H]1CC[C@@H](c2ccc(Cl)c(Cl)c2)c2ccccc21 [N-desmethyls ertraline, N-desmethylsertraline]",62 to 104,
CCc1nn(CCCN2CCN(c3cccc(Cl)c3)CC2)c(=O)n1CCOc1ccccc1 [Nefazodone],2 to 4,
CNCCC=C1c2ccccc2COc2ccccc21 [Nordoxepin],31,
NCCC(Oc1ccc(C(F)(F)F)cc1)c1ccccc1 (centres unmarked) [Norfluoxetine],,"Plasma Half-life, Range [1, 11]: 96 to 384 h; Plasma Half-life, Mean [1]: 223 h"
CNCCC=C1c2ccccc2CCc2ccccc21 [Nortriptyline],16 to 93,
"CN(C)CC(c1ccc(O)cc1)C1(O)CCCCC1 (centres unmarked) [O-desmeth ylvenlafaxine, O-desmethylvenlafaxine]",9 to 13,
"Fc1ccc([C@@H]2CCNC[C@H]2COc2ccc3c(c2)OCO3)cc1 [P aroxetine, Paroxetine]",21,
"CNCCCC1c2ccccc2C=Cc2ccccc21 [P rotriptyline, Protriptyline]",55 to 198,
NNCCc1ccccc1 [Phenelzine],,"Plasma Half-life [1, 12]: 11.6 h"
"C#CCNC(C)Cc1ccccc1 (stereo not drawn) [R(-)-N -desmeth ylselegiline, R(-)-N-desmethylselegiline]",18 to 25,
CN[C@H](C)Cc1ccccc1 [R(-)-methamphetamine],18 to 25,
C#CCN(C)[C@H](C)Cc1ccccc1 [Selegiline],10,
CN[C@H]1CC[C@@H](c2ccc(Cl)c(Cl)c2)c2ccccc21 [Sertraline],26,
C[C@H](NC(C)(C)C)[C@@H](O)c1cccc(Cl)c1 [Threohydrobupropion],24 to 50,"Plasma Half-life, Mean [1]: 37 h"
"CC(CN(C)C)CN1c2ccccc2CCc2ccccc21 (centres unmarked) [Tr i mi p r a mi n e, Trimipramine]",11 to 23,
O=c1n(CCCN2CCN(c3cccc(Cl)c3)CC2)nc2ccccn12 [Trazodone],,"Plasma Half-life [1, 12]: 10 h"
"COc1ccc(C(CN(C)C)C2(O)CCCCC2)cc1 (centres unmarked) [V enlafaxine, Venlafaxine]",3 to 7,
"N#Cc1ccc2[nH]cc(CCCCN3CCN(c4ccc5oc(C(N)=O)cc5c4)CC3)c2c1 [V ilazod on e, Vilazodone]",25,
CCN(CC)C(=O)[C@]1(c2ccccc2)C[C@@H]1CN [d-milnacipran],8 to 10,
CCN(CC)C(=O)[C@@]1(c2ccccc2)C[C@H]1CN [l-enatiomer],4 to 6,
